Experimental data reported in patent US20240344059A1, “Gene Editing of Regulatory Elements” (Vertex Pharmaceuticals Incorporated, priority 2021, published 2024).

How the values were obtained:
[1] = system: CUG RNA foci in primary DM1 patient myoblasts / myotubes; experiment: FISH staining of CUG RNA foci (SpCas9 sgRNA pairs); type: cell-based, human; settings: DM1 patient myotubes nucleofected with SpCas9 sgRNA pairs, Group 5 vs Group 6
Experimental: Primary myoblasts were fixed for 15 min with 4% paraformaldehyde (PFA) and washed five times with 1×PBS for 10 min each at room temperature. Before staining, cells were permeabilized with 0.5% triton X-100 in 1×PBS for 5 min at room temperature, and then washed with 30% formamide and 2× saline-sodium citrate (SSC) mixture for 10 min at room temperature. Cells were then stained with 1 ng/μL of Cy3-PNA(CAG)5 probe (PNA Bio, F5001) diluted in 30% formamide, 2×SSC, 2 μg/mL BSA, 66 μg/mL yeast tRNA, and 2 mM vanadyl complex for 15 min at 80° C. Following probe staining, cells were then washed in 30% formamide and 2×SSC mixture for 30 min at 42° C., then washed in 30% formamide and 2×SSC mixture for 30 min at 37° C., and then washed in 1×SSC solution for 10 min at room temperature, and finally washed in 1×PBS for 10 min at room temperature. For staining of myotube nuclei, cells were stained with anti-Myogenin antibody diluted in 1% bovine serum albumin (BSA) for overnight at 4° C. and washed twice with 1×PBS for 10 min each at room temperature. Cells were then incubated with the secondary antibody goat anti-rabbit Alexa 647 (Thermo Fisher, A32728) diluted in 1% BSA for 1 hr at room temperature and washed twice with 1×PBS for 10 min each at room temperature. […] RNA foci quantifications were accomplished with a customized analysis module of the MetaXpress program (Molecular Devices). […]

[2] = system: E-boxes within intron 1 of human DMPK gene; experiment: PCR, TapeStation and ICE verification of E-box excision (SaCas9/SluCas9 RNP); type: cell-based; settings: DM1 patient myoblasts, 3 μM DNA-PKi Compound 6 for 48 h, TapeStation and ICE analysis
Source text: Primary healthy myoblasts (P01431-18F) and DM1 patient myoblasts (03001-32F) were obtained from Cook MyoSite. Myoblasts were maintained in myoblast growth medium consisted of Myotonic™ Basal Medium (Cook Myosite, MB-2222) and Myotonic™ Growth Supplement (Cook Myosite, MS-3333) and purified with EasySep Human CD56 Positive Selection Kit II (StemCell Tech, 17855) following the manufacturer's instruction. Purified myoblasts were then banked in liquid nitrogen tank until 3-4 days before nucleofection.
The RNPs were assembled with either recombinant SaCas9 protein (Aldevron) or SluCas9 (Aldevron) and chemically modified sgRNAs (Synthego) at a ratio of 1:3 (protein:sgRNA). Specifically, SaCas9 RNPs complexes were first assembled for individual sgRNAs with 20 pmol of SaCas9 protein and 60 pmol of sgRNAs in 5 μL of P5 Nucleofector Solution. SluCas9 RNPs complexes were first assembled for individual sgRNAs with 15 pmol of SluCas9 and 45 pmol of sgRNAs in 5 μL of P5 Nucleofector Solution. […]
Genomic DNA of DM1 myoblasts was isolated with the Kingfisher Flex purification system (Thermal Fisher) in 96-well format following the manufacturer's instruction. […] The PCR products were analyzed by gel electrophoresis. […]

Cc1ccnc(N[C@H]2CC[C@@H](Oc3cc(N4CCOCC4)cc4nonc34)CC2)n1 [Compound 6]
foci-free myonuclei, DNA-PKi-treated versus vehicle-treated [1]: substantially higher | expected excision, DNA-PKi group compared to the vehicle group [2]: more apparent expected excision
